Measurements as given in patent US20040161781A1, “Compositions and methods for identifying thymidylate synthase modulators” (priority 2002, published 2004).
Where two headings read alike, the source gives them in different places.

Assays:
[1] = tested on: thymidylate synthase (TS); assay: Down-regulation of TS in H630 cells treated with acyl-homoserine lactones (Western blotting); assay type: cell-based, human; details: overnight (approximately 16 hours)
Description: FIG. 6. A representation of the ability of acyl homoserine lactones to down-regulate TS in H630 cells.
The signaling molecules produced by the rTS signaling pathway cause a decrease in the amount of TS found in cells. These signaling molecules can simulate the effects of the compound 3-oxo-hexanoyl homoserine lactone in activating the receptor for this compound when it is present in a recombinant bacteria. […] This hypothesis was validated by the results of an experiment portrayed in FIG. 6. Accordingly, the down-regulation of TS in H630 (human colon cancer) cells treated with acyl-homoserine lactones was tested. Cells growing in RPMI 1640 culture medium, supplemented with 10% dialyzed fetal bovine serum at 37° C. in an atmosphere of 95:5 air:CO2. The compounds with the structures shown were added to the cells and allowed to incubate overnight (approximately 16 hours). The cells were extracted and TS measured by Western blotting as described. The compounds from top to bottom are: (1) 3-hydroxy butanoyl homoserine lactone, (2) butanoyl homoserine lactone; (3) 3-oxo-hexanoyl homoserine lactone; (4) d, 1-hexanoyl homoserine lactone, and (5) 1-homoserine lactone. Tubulin is shown as a loading standard.

[2] = tested on: thymidylate synthase (TS); assay: Luciferase assay in H630 cells transiently transfected with pG3E1-2TBE; assay type: cell-based, human; details: 5-FU 10 μM for 24 hr; H630 cells transfected with pG3E1-2TBE
Method: FIGS. 2a-2c. Activity of the EGR-I promoter and TBEs in pGL3-basic plasmid. FIG. 2a—the EGR-I promoter was added upstream of the luciferase reporter gene of pGL3-basic plasmid as described in Example 1. The resultant construct pG3E1 was transfected into H630 cells and the luciferase assay was performed 24 hr later. Control: mock transfection; pG3E1: 5 μg of pG3E1 plasmid DNA per 2×10^6 cells was used for transfection. RLU: relative light units. In FIGS. 2b and 2c, TS-binding elements were synthesized and added into pG3E1. The pG3E1-2TBE (5 μg) was transfected into six replicate aliquots of H630 cells (2×10^6) and plated separately. After 24 hr, three of transfected samples were treated with 5-FU (10 μM) for an additional 24 hr (FIG. 2c), the cells were then processed for the luciferase assay according to the manufacturer's instructions. Control: mock transfection; pG3E1: transfected with pG3E1; pG3E1+T: transfected with pG3E1-2TBE only (FIG. 2b). P+T+FU: transfected with pG3E1-2TBE and 24 hr following transfection treated with 5-FU (FIG. 2c). Data are the average of triplicate experiments±S.D.
This example describes the transient transfection of cells with the construct of the present invention. […]

[3] = tested on: thymidylate synthase (TS); assay: Luciferase assay in stably transfected H630-C6 cells (pG3E1-2TBE-Neo); assay type: cell-based, human
Method: FIGS. 3a-3j. RLU production in H630-C6 cells in response to TS inhibitors. H630-C6 cells were evaluated for luciferase activity in response to treatment with the indicated compounds. The cells were exposed to the compounds at the indicated concentrations for 18 hr and luciferase assays were then performed according to the manufacturer's instructions. The mean values of triplicates or quadruplicates are shown along with the standard derivations.
This example describes the stable transfection of cells with the DNA construct of the present invention. To facilitate selection of stable transformants, we added a neomycin-resistance gene to the pG3E1-2TBE (FIG. 1) to generate a new plasmid termed pG3E1-2TBE-Neo as follows. For stable transfection, pG3E1-2TBE-Neo was linearized at the ampicillin resistance gene with Ase I and was introduced into H630 cells as described above. At 24 hrs post-transfection, the cells were exposed to 400 μg/ml of G418 for two weeks. Individual clones were picked at that time and screened for their ability to induce luciferase in response to treatment with 5-FU, a known TS inhibitor. Following selection with G418 and evaluation for changes in luciferase activity after exposure of the cells to 5-FU, the cloned subline H630/pG3E1-2TBE-Neo-L1-2-C6 (H630-C6) was chosen for further study.
The stably transfected H630-C6 cell line was maintained in RPMI 1640 plus 10% dialyzed FBS and 400 μg/ml of geneticin (G418). For luciferase assays, 2×10^4 cells were seeded in each well of a 24-well plate in RPMI 1640 medium plus 10% FBS without G418 and were allowed to attach at least six hr, followed by drug exposure overnight (approximately 18 hr). The cells were then washed with PBS (137 mM NaCl, 2.7 mM KCl, 4.3 mM Na2HPO4, 1.4 mM KH2PO4, pH 7.4), lysed with Passive Lysis Buffer (Promega, Madison) and assayed for luciferase activity using the Luciferase Assay System (Promega, Madison, Wis.) according to the manufacturer's instructions. Relative light units (RLU) were measured with a Lumat LB 9501 luminometer (EG & G Berthold, Wildbad, Germany).
To test H630-C6 as a tool to identify TS modulators three different classes of compounds, i.e., specific or predominantly specific TS inhibitors, agents that inhibit folate pathways or inhibit TS as well as having other targets, and agents that act through TS unrelated sites of action were evaluated for their ability to induce changes in luciferase activity.

[4] = tested on: thymidylate synthase (TS); assay: Evaluation of TS expression by Western blotting in H630-C6 cells; assay type: cell-based, human; details: H630-C6 cells, 18 hr treatment
Method: FIGS. 4a and 4b. Evaluation of TS expression by Western blotting. […] The cells were harvested for Western blots.
This example describes the relationship between TS levels and luciferase production by various known TS inhibitors. Western blotting was performed as previously described (Dolnick and Black, 1996). Briefly, H630-C6 cells were washed with PBS and extracted with RIPA buffer. 10 μg of total protein was resolved by electrophoresis in a 10% SDS-PAGE and was blotted onto a PVDF membrane (Immobilon-P, Millipore, Bedford, Mass.). The membrane was hybridized with rabbit polyclonal antibody against TS (a gift from Dr. Edward Chu, VA Cancer Center, Yale University, West Haven, Conn.) diluted in SuperBlock Blocking Buffer (Pierce, Rockford, Ill.) plus 0.25% Tween 20 for one hour and hybridized with HRP-linked anti-rabbit secondary antibody (Jackson Laboratories) for an additional one hour. The membrane was detected with SuperSignal West Dura Extended Duration Substrate (Pierce, Rockford, Ill.) and was visualized by exposing the blot to Kodak XAR-5 film. […] The resulting signal was detected as described above.
The induction of luciferase activity depends upon the ability to reduce the amount of endogenous TS bound to the TBEs in the recombinant luciferase transcripts. Dissociation of TS from the luciferase reporter mRNA is expected to be accompanied by the removal of TS from TBEs located in other mRNAs as well, such as endogenous TS mRNA. Therefore, an increase in TS is expected to accompany the increase in luciferase. To verify whether a translational mechanism is involved we evaluated the levels of TS from cells treated with the compounds described above by Western blotting.

[5] = tested on: thymidylate synthase (TS); assay: Multiwell luciferase assay in RKO colon tumor cell lines containing pG3E1-2TBE-Neo; details: for % C (effect relative to control without 5-FU), RKO clone 1 / % C (effect relative to control without 5-FU), RKO clone 4 / % C (effect relative to control without 5-FU), RKO clone 7 / RLU RKO clone 1 / RLU RKO clone 4 / RLU RKO clone 7: approximately 18 hr

CCCCCC(=O)NC1CCOC1=O (single isomer, unassigned) [d-enantiomer]
activity of the enantiomers, concluded from the comparison with the racemic mixture [1]: inactive

CCCCCC(=O)N[C@H]1CCOC1=O [1-hexanoyl compound]
activity in down-regulating TS relative to the racemic mixture (d, 1) [1]: twice as active
activity of the enantiomers, concluded from the comparison with the racemic mixture [1]: active

O=c1[nH]cc(F)c(=O)[nH]1 [5-FU, 5-Fluorouracil]
increase in the RLU compared with untreated transfectants [2]: 33±13.8%
concentration at which the increase in RLU output plateaued ([3]; H630-C6 cells, 18 hr exposure): 50 µM
mobility of TS in SDS-PAGE / Western blot [4]: altered the mobility of TS
lowest concentration at which changes in RLU can be detected ([5]; RKO clones, Table 1): 0.1 µM
% C (effect relative to control without 5-FU), RKO clone 1 ([5]; [5-FU] 0.1 μM): 117%
% C (effect relative to control without 5-FU), RKO clone 4 ([5]; [5-FU] 0.1 μM): 121%
% C (effect relative to control without 5-FU), RKO clone 7 ([5]; [5-FU] 0.1 μM): 120%
RLU RKO clone 1 ([5]; [5-FU] 0.1 μM): 1137 RLU
RLU RKO clone 4 ([5]; [5-FU] 0.1 μM): 1078 RLU
RLU RKO clone 7 ([5]; [5-FU] 0.1 μM): 799 RLU
% C (effect relative to control without 5-FU), RKO clone 1 ([5]; [5-FU] 0.5 μM): 135%
% C (effect relative to control without 5-FU), RKO clone 4 ([5]; [5-FU] 0.5 μM): 112%
% C (effect relative to control without 5-FU), RKO clone 7 ([5]; [5-FU] 0.5 μM): 157%
RLU RKO clone 1 ([5]; [5-FU] 0.5 μM): 1314 RLU
RLU RKO clone 4 ([5]; [5-FU] 0.5 μM): 999 RLU
RLU RKO clone 7 ([5]; [5-FU] 0.5 μM): 1043 RLU
% C (effect relative to control without 5-FU), RKO clone 1 ([5]; [5-FU] 2.0 μM): 140%
% C (effect relative to control without 5-FU), RKO clone 4 ([5]; [5-FU] 2.0 μM): 137%
% C (effect relative to control without 5-FU), RKO clone 7 ([5]; [5-FU] 2.0 μM): 168%
RLU RKO clone 1 ([5]; [5-FU] 2.0 μM): 1356 RLU
RLU RKO clone 4 ([5]; [5-FU] 2.0 μM): 1214 RLU
RLU RKO clone 7 ([5]; [5-FU] 2.0 μM): 1119 RLU
% C (effect relative to control without 5-FU), RKO clone 1 ([5]; [5-FU] 10 μM): 179%
% C (effect relative to control without 5-FU), RKO clone 4 ([5]; [5-FU] 10 μM): 172%
% C (effect relative to control without 5-FU), RKO clone 7 ([5]; [5-FU] 10 μM): 243%
RLU RKO clone 1 ([5]; [5-FU] 10 μM): 1738 RLU
RLU RKO clone 4 ([5]; [5-FU] 10 μM): 1527 RLU
RLU RKO clone 7 ([5]; [5-FU] 10 μM): 1614 RLU
% C (effect relative to control without 5-FU), RKO clone 1 ([5]; [5-FU] 50 μM): 148%
% C (effect relative to control without 5-FU), RKO clone 4 ([5]; [5-FU] 50 μM): 175%
% C (effect relative to control without 5-FU), RKO clone 7 ([5]; [5-FU] 50 μM): 156%
RLU RKO clone 1 ([5]; [5-FU] 50 μM): 1438 RLU
RLU RKO clone 4 ([5]; [5-FU] 50 μM): 1559 RLU
RLU RKO clone 7 ([5]; [5-FU] 50 μM): 1560 RLU

Nc1ncn([C@@H]2O[C@H](CO)[C@@H](O)[C@H]2O)c(=O)n1 [AC, 5-azacytidine]
change in luciferase activity (RLU), in words ([3]; H630-C6 cells, 18 hr exposure): no increase
TS protein level by Western blotting [4]: did not alter TS protein levels

O=c1[nH]c(=O)n([C@H]2C[C@H](O)[C@@H](CO)O2)cc1F [FUdR, 5-fluoro-2′-deoxyuridine]
concentration at which the increase in RLU output plateaued ([3]; H630-C6 cells, 18 hr exposure): 0.005 µM
mobility of TS in SDS-PAGE / Western blot [4]: altered the mobility of TS

O=c1[nH]c(=O)n([C@@H]2O[C@H](CO)[C@@H](O)[C@H]2O)cc1F [FUrd, 5-fluorouridine]
concentration at which the increase in RLU output plateaued ([3]; H630-C6 cells, 18 hr exposure): 2.5 µM
mobility of TS in SDS-PAGE / Western blot [4]: altered the mobility of TS

CN[C@@H]1[C@@H](O)[C@@H](O[C@@H]2[C@@H](O)[C@H](O[C@H]3O[C@H]([C@@H](C)O)[C@@H](O)[C@H](O)[C@H]3N)[C@@H](N)C[C@H]2N)OC[C@]1(C)O [G418, geneticin]
TS protein level by Western blotting [4]: inactive

CN(Cc1cnc2nc(N)nc(N)c2n1)c1ccc(C(=O)N[C@@H](CCC(=O)O)C(=O)O)cc1 [MTX, methotrexate]
change in luciferase activity (RLU), in words [3]: increases in luciferase that were comparable
elevation of luciferase activity [3]: approximately two-fold
TS protein level by Western blotting [4]: elevated TS protein levels

O=c1[nH]c(=O)n([C@H]2C[C@H](O)[C@@H](CO)O2)cc1C(F)(F)F [TFT, trifluorothymidine]
concentration at which the increase in RLU output plateaued ([3]; H630-C6 cells, 18 hr exposure): 0.1 µM

Nc1nc2c([nH]c(=S)n2[C@@H]2O[C@H](CO)[C@@H](O)[C@H]2O)c(=O)[nH]1 [TG, 8-thioguanosine]
change in luciferase activity (RLU), in words ([3]; H630-C6 cells, 18 hr exposure): no increase
TS protein level by Western blotting [4]: did not alter TS protein levels

Cc1nc2ccc(CN(C)c3ccc(C(=O)N[C@@H](CCC(=O)O)C(=O)O)s3)cc2c(=O)[nH]1 [ZD1694, Raltitrexed]
elevation of luciferase activity ([3]; 100 μM, H630-C6 cells, 18 hr): approximately two-fold
change in luciferase activity (RLU), in words ([3]; H630-C6 cells, 18 hr exposure): increases in luciferase that were comparable
